Experimental data from paper PMC11882074, “Identification of antimicrobial peptides from the Ambystoma mexicanum displaying antibacterial and antitumor activity” (PLOS One, 2025).
Residues, ends and D or L forms follow the SMILES beside them.

Assays:
MRSA, ATCC# 43300 = type: cell-based, Staphylococcus aureus
Description: (§1) MIC assays (MRSA, ATCC# 43300/ MSSA, ATCC# 6538) were performed according to CLSI guidelines. […] Thereafter, samples were treated with peptide concentrations ranging from 10, 5, 2.5, 2, 1.75, 1.5 1.25, 1, 0,85, 0.625 and 0.313 µg/mL. Human antimicrobial peptide LL-37 was utilized as a positive control at a concentration of 256 μg/mL, as it is one of the best-known examples of AMP-based drug development. The assay was performed in triplicates. Efficacy was assessed according to the viable bacterial load determined by dilution plating and counting of Colony Forming Units (CFU). The lowest concentration that inhibited bacterial growth after 24 h of incubation is the MIC. Growth curve were performed using a plate reader (Synergy 2, Biotek).

[1] = system: methicillin-resistant Staphylococcus aureus; conditions: no reference given, cited from earlier work
Description: We evaluated the antimicrobial activity of the synthesized peptides by assessing their MIC against Meticillin-Sensitive Staphylococcus aureus and Methicillin-resistant Staphylococcus aureus (MSSA and MRSA). […] The MIC of vancomycin of 2 µg/mL was used as ... || The skin mucus-derived AMPs were initially characterized, and 22 candidate peptides were identified and ranked based on their likelihood of having antibacterial activities (Table 1, Supl. 2).

MSSA, ATCC# 6538 = experiment: MIC assay according to CLSI guidelines against MSSA; type: cell-based, Staphylococcus aureus; conditions: 24 h, 37°C; peptides listed in order of lowest to highest MIC; Fig 2A
Description: as §1

[2] = system: T-47D mammary carcinoma cells; experiment: Apoptosis assay (Apo-ONE Homogeneous Caspase-3/7) in T-47D cells; type: cell-based, human; conditions: for apoptotic activity compared to the control in T-47D cells: 1 µg/ml peptide; for apoptotic activity compared to the control in T-47D cells / caspase-3/7 activity (apoptotic induction) in T-47D cells: 24 h stimulation, fluorescence (RFU); for caspase-3/7 activity (apoptotic induction) in T-47D cells: 10 µg/ml peptide; for apoptosis in cancerous breast tissue cells (T-47D): all concentrations tested (1µg, 5µg, and 10µg), 24 h, compared with MCF10A, t-test
[3] = system: T-47D mammary carcinoma cells; experiment: Gene expression analysis, Human Breast Cancer RT2 Profiler PCR array; type: cell-based; conditions: 10 µg/mL peptide, 24 h, ΔΔCt vs unstimulated control, fold change above 2
Description: Three 75 cm^2 cell culture flasks containing the T-47D and three 75 cm^2 cell culture flasks containing the MCF10A cells were individually stimulated with peptides 1, 12, or 13 at a concentration of 10 µg/mL. An unstimulated cell culture flask was left as a control. Cells were incubated for 24 hours according to standard protocol at 37°C and 5% CO2, in a humidified atmosphere.
After 24 hours, the cells were detached, and RNA was isolated according to the Macherey-Nagel kit. RNA quality was assessed using a NanoDrop 1000 spectrophotometer and gel electrophoresis. To create cDNA the iScript cDNA Synthesis Kit (BioRad) was used and followed according to manufacturer’s instructions. For gene expression analysis, the Human Breast Cancer RT2 Profiler PCR array was used (Qiagen) according to manufacturer’s instructions. On this plate, forward and reverse primers were already included in each well for the respective genes. The qPCR cycling conditions were as follows: 8.5 min at 95°C, […] at 55°C, […] at 72°C and 4°C as holding temperature. Housekeeping gene stability was validated, and results were geometrically averaged. Beta (β)-actin was used for endogenous controls. Expression of carcinogenic markers was quantified relative by the ΔΔCt method and results were normalized to housekeeping genes (Livak and Schmittgen, 2001). The Ct values of the untreated samples were set to zero. The Ct values of the MCF10A samples were subtracted from the Ct values of the T-47D samples. Relative gene expression was calculated from the zero line using Microsoft Excel Version 2016 software (Microsoft Cooperation, Redmond, WA, USA). The resulting higher or lower expressions of the analyzed genes were presented. Gene expression was measured using the BioRad i-Cycler.

Row | Compound | MIC against methicillin-resistant Staphylococcus aureus (MRSA) (MRSA, ATCC# 43300; ATCC# 43300, 24 h) [µg/mL] | MIC of vancomycin used as threshold for identifying inhibitory effects ([1]; threshold for MRSA and MSSA in Fig 2A) [µg/mL] | MIC values reported against similar MRSA strains ([1]; typical reported range) [µg/mL] | inhibitory effect against MSSA (MIC relative to vancomycin threshold of 2 µg/mL) (MSSA, ATCC# 6538) | inhibitory effect against MRSA (MIC relative to vancomycin threshold of 2 µg/mL) (MRSA, ATCC# 43300; 24 h, 37°C, peptides listed in order of lowest to highest MIC, Fig 2A) | apoptotic activity compared to the control in T-47D cells [2] | caspase-3/7 activity (apoptotic induction) in T-47D cells [2] | apoptosis in cancerous breast tissue cells (T-47D) [2] | genes with significant decrease in expression [3] | genes with significant increase in expression [3]
1 | CC[C@H](C)[C@H](NC(=O)CNC(=O)CNC(=O)[C@H](CO)NC(=O)[C@H](C)NC(=O)CNC(=O)[C@H](CC(C)C)NC(=O)[C@@H](NC(=O)[C@H](C)NC(=O)[C@@H](N)C(C)C)C(C)C)C(=O)NCC(=O)N[C@@H](CCC(N)=O)C(=O)N1CCC[C@H]1C(=O)N[C@@H](CC(C)C)C(=O)N[C@@H](CO)C(=O)N[C@@H](CC(C)C)C(=O)N[C@@H](CC(C)C)C(=O)N[C@@H](CC(C)C)C(=O)N[C@@H](CCCCN)C(=O)O [Peptide 1] (H-VAVLGASGGIGQPLSLLLK-OH) | 2 |  |  |  |  |  |  |  |  | 
2 | CN[C@H](CC(C)C)C(=O)N[C@H]1C(=O)N[C@@H](CC(N)=O)C(=O)N[C@H]2C(=O)N[C@H]3C(=O)N[C@H](C(=O)N[C@H](C(=O)O)c4cc(O)cc(O)c4-c4cc3ccc4O)[C@H](O)c3ccc(c(Cl)c3)Oc3cc2cc(c3O[C@@H]2O[C@H](CO)[C@@H](O)[C@H](O)[C@H]2O[C@H]2C[C@](C)(N)[C@H](O)[C@H](C)O2)Oc2ccc(cc2Cl)[C@H]1O [vancomycin] |  | 2 | 0.5 to 2 |  |  |  |  |  |  | 
3 | FGANALLGVSLAVcKAGAAEK [Peptide 13, synthetic analog of axolotl skin mucus AMP, rank 13] |  |  |  | Inhibitory effects | inhibitory effect | less distinct | highest levels of caspase-3/7 activity | significantly increased apoptosis | IL6 and MMP2 | BRCA1, BRCA2, NR3C1, SERPINE1, and XBP1
4 | ILLLcVGEAGDTVQFAEYIQK [Peptide 12, synthetic analog of axolotl skin mucus AMP, rank 12] |  |  |  |  |  | increased apoptotic activity compared to the control | highest levels of caspase-3/7 activity | significantly increased apoptosis | CCND2, EGF, GLI1, KRT5, MMP2, and SERPINE1 | BRCA1, JUN, NR3C1, RB1, SFN, and XBP1
